Results: PubChem BioAssay AID2060886 (Molecular Pharmacology Branch, DTP, NCI, 2025)

System: 653999-131-R-J2-PDC complex spheroids, growth inhibition
Assay: Anticancer human tumor 653999-131-R-J2-PDC patient-derived lung adenocarcinoma cell line growth inhibition [RAS]
Conditions: for IC50: curve of first compound; for viability, T/C: stronger effect = lower value
Method in brief: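 Tumour cells grown as complex spheroids with HUVEC endothelial cells and mesenchymal stem cells, treated with RAS pathway inhibitor combinations. Each agent spans half-log steps from near clinical Cmax, or 10 microM where Cmax is unknown.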
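Further: spheroids exposed to the agents for seven days before the readout.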

`CC(=O)OC12COC1CC(O)C1(C)C(=O)C(O)C3=C(C)C(OC(=O)C(O)C(NC(=O)OC(C)(C)C)c4ccccc4)CC(O)(C(OC(=O)c4ccccc4)C21)C3(C)C` (centres undefined) + CCn1c(-c2cccnc2C(C)OC)c2c3cc(ccc31)N1CCOC(CC(NC(=O)C(C(C)C)N(C)C(=O)C3(F)CCN(C(=O)C#CC(C)(C)N(C)C)CC3)C(=O)N3CCCC(N3)C(=O)OCC(C)(C)C2)C1 was tested, and the IC50 (second compound 0.000949 µM) was over 10000 nM, the IC50 (second compound 0.003 µM) was over 10000 nM and the IC50 (second compound 0.00949 µM) was over 10000 nM. For the same molecule, the IC50 (second compound 0.03 µM) was over 10000 nM, the IC50 (second compound 0.0949 µM) was over 10000 nM and the IC50 (second compound 0.3 µM) was under 31.6 nM. It also gave a viability, T/C (second compound 0.000949 µM, first compound 0.0316 µM) of 52.5%, a viability, T/C (second compound 0.000949 µM, first compound 0.1 µM) of 52.7% and a viability, T/C (second compound 0.000949 µM, first compound 0.316 µM) of 57.8%. It also gave a viability, T/C (second compound 0.000949 µM, first compound 1 µM) of 62.2%, a viability, T/C (second compound 0.000949 µM, first compound 3.16 µM) of 62.3% and a viability, T/C (second compound 0.000949 µM, first compound 10 µM) of 66.6%. It also gave a viability, T/C (second compound 0.003 µM, first compound 0.0316 µM) of 59.5%, a viability, T/C (second compound 0.003 µM, first compound 0.1 µM) of 53.2% and a viability, T/C (second compound 0.003 µM, first compound 0.316 µM) of 53.8%. The viability, T/C (second compound 0.003 µM, first compound 1 µM) was 59.7%, the viability, T/C (second compound 0.003 µM, first compound 3.16 µM) was 70.7% and the viability, T/C (second compound 0.003 µM, first compound 10 µM) was 76.9%. The viability, T/C (second compound 0.00949 µM, first compound 0.0316 µM) was 60.5%, the viability, T/C (second compound 0.00949 µM, first compound 0.1 µM) was 59.7% and the viability, T/C (second compound 0.00949 µM, first compound 0.316 µM) was 53.1%. The viability, T/C (second compound 0.00949 µM, first compound 1 µM) was 58.7%, the viability, T/C (second compound 0.00949 µM, first compound 3.16 µM) was 66.3% and the viability, T/C (second compound 0.00949 µM, first compound 10 µM) was 67.2%. The viability, T/C (second compound 0.03 µM, first compound 0.0316 µM) was 57.6%, the viability, T/C (second compound 0.03 µM, first compound 0.1 µM) was 59.9% and the viability, T/C (second compound 0.03 µM, first compound 0.316 µM) was 56.1%. It also gave a viability, T/C (second compound 0.03 µM, first compound 1 µM) of 54.5%, a viability, T/C (second compound 0.03 µM, first compound 3.16 µM) of 68% and a viability, T/C (second compound 0.03 µM, first compound 10 µM) of 64.2%. It also gave a viability, T/C (second compound 0.0949 µM, first compound 0.0316 µM) of 53.6%, a viability, T/C (second compound 0.0949 µM, first compound 0.1 µM) of 55% and a viability, T/C (second compound 0.0949 µM, first compound 0.316 µM) of 52.3%. For the same molecule, the viability, T/C (second compound 0.0949 µM, first compound 1 µM) was 58.5%, the viability, T/C (second compound 0.0949 µM, first compound 3.16 µM) was 61% and the viability, T/C (second compound 0.0949 µM, first compound 10 µM) was 65.1%. For the same molecule, the viability, T/C (second compound 0.3 µM, first compound 0.0316 µM) was 45.6%, the viability, T/C (second compound 0.3 µM, first compound 0.1 µM) was 49.8% and the viability, T/C (second compound 0.3 µM, first compound 0.316 µM) was 41%. For the same molecule, the viability, T/C (second compound 0.3 µM, first compound 1 µM) was 52.1%, the viability, T/C (second compound 0.3 µM, first compound 3.16 µM) was 53.7% and the viability, T/C (second compound 0.3 µM, first compound 10 µM) was 60.3%.
`CCc1c2c(nc3ccc(O)cc13)-c1cc3c(c(=O)n1C2)COC(=O)[C@]3(O)CC` + CCn1c(-c2cccnc2C(C)OC)c2c3cc(ccc31)N1CCOC(CC(NC(=O)C(C(C)C)N(C)C(=O)C3(F)CCN(C(=O)C#CC(C)(C)N(C)C)CC3)C(=O)N3CCCC(N3)C(=O)OCC(C)(C)C2)C1 showed an IC50 (second compound 0.000949 µM) of 13.3 nM, an IC50 (second compound 0.003 µM) of 12.6 nM and an IC50 (second compound 0.00949 µM) of 14.8 nM. For the same molecule, the IC50 (second compound 0.03 µM) was 10.6 nM, the IC50 (second compound 0.0949 µM) was 7.78 nM and the IC50 (second compound 0.3 µM) was 5.63 nM. For the same molecule, the viability, T/C (second compound 0.000949 µM, first compound 0.000949 µM) was 92.6%, the viability, T/C (second compound 0.000949 µM, first compound 0.003 µM) was 84.4% and the viability, T/C (second compound 0.000949 µM, first compound 0.00949 µM) was 52%. It also gave a viability, T/C (second compound 0.000949 µM, first compound 0.03 µM) of 35.9%, a viability, T/C (second compound 0.000949 µM, first compound 0.0949 µM) of 30% and a viability, T/C (second compound 0.000949 µM, first compound 0.3 µM) of 16.7%. For the same molecule, the viability, T/C (second compound 0.003 µM, first compound 0.000949 µM) was 86%, the viability, T/C (second compound 0.003 µM, first compound 0.003 µM) was 77.3% and the viability, T/C (second compound 0.003 µM, first compound 0.00949 µM) was 52.8%. For the same molecule, the viability, T/C (second compound 0.003 µM, first compound 0.03 µM) was 35.9%, the viability, T/C (second compound 0.003 µM, first compound 0.0949 µM) was 28% and the viability, T/C (second compound 0.003 µM, first compound 0.3 µM) was 20.4%. It also gave a viability, T/C (second compound 0.00949 µM, first compound 0.000949 µM) of 104%, a viability, T/C (second compound 0.00949 µM, first compound 0.003 µM) of 84.1% and a viability, T/C (second compound 0.00949 µM, first compound 0.00949 µM) of 55.2%. The viability, T/C (second compound 0.00949 µM, first compound 0.03 µM) was 37.8%, the viability, T/C (second compound 0.00949 µM, first compound 0.0949 µM) was 28.7% and the viability, T/C (second compound 0.00949 µM, first compound 0.3 µM) was 17.3%. The viability, T/C (second compound 0.03 µM, first compound 0.000949 µM) was 91.8%, the viability, T/C (second compound 0.03 µM, first compound 0.003 µM) was 75.7% and the viability, T/C (second compound 0.03 µM, first compound 0.00949 µM) was 51.9%. For the same molecule, the viability, T/C (second compound 0.03 µM, first compound 0.03 µM) was 31.4%, the viability, T/C (second compound 0.03 µM, first compound 0.0949 µM) was 22.3% and the viability, T/C (second compound 0.03 µM, first compound 0.3 µM) was 16.3%. The viability, T/C (second compound 0.0949 µM, first compound 0.000949 µM) was 90.6%, the viability, T/C (second compound 0.0949 µM, first compound 0.003 µM) was 66.4% and the viability, T/C (second compound 0.0949 µM, first compound 0.00949 µM) was 47.5%. The viability, T/C (second compound 0.0949 µM, first compound 0.03 µM) was 29.9%, the viability, T/C (second compound 0.0949 µM, first compound 0.0949 µM) was 19.3% and the viability, T/C (second compound 0.0949 µM, first compound 0.3 µM) was 12.4%. For the same molecule, the viability, T/C (second compound 0.3 µM, first compound 0.000949 µM) was 81%, the viability, T/C (second compound 0.3 µM, first compound 0.003 µM) was 57.8% and the viability, T/C (second compound 0.3 µM, first compound 0.00949 µM) was 44.9%. The viability, T/C (second compound 0.3 µM, first compound 0.03 µM) was 26.3%, the viability, T/C (second compound 0.3 µM, first compound 0.0949 µM) was 17.6% and the viability, T/C (second compound 0.3 µM, first compound 0.3 µM) was 11.5%.
